Values quoted from earlier work as cited in patent US20060287342A1, “Triazolopyrimidine heterocycles as cannabinoid receptor modulators” (priority 2005, published 2006).

Legend:
[1] = chronic administration for two weeks
human subjects = conditions: 16 week trial period

SMILES | body weight [1] | body weight (human subjects)
Cc1c(C(=O)NN2CCCCC2)nn(-c2ccc(Cl)cc2Cl)c1-c1ccc(I)cc1 [AM-251] | substantial body weight reduction | –
Cc1c(C(=O)NN2CCCCC2)nn(-c2ccc(Cl)cc2Cl)c1-c1ccc(Cl)cc1 [SR-141716] | – | dose-dependently reduced body weight
